Results published in PubChem BioAssay (NCI).
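Results reflect a 48-hour exposure of cells in 96-well plates to compound at five concentrations. GI50 is the concentration that inhibits growth by half. TGI marks complete inhibition of growth.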

Assays:
Experiment in all cases: DTP human tumour cell line panel, 48 h
EKVX NSCLC = system: EKVX NSCLC
RPMI-8226 leukemia = system: RPMI-8226 leukemia
SR leukemia = system: SR leukemia
IGROV1 ovarian = system: IGROV1 ovarian
OVCAR-3 ovarian = system: OVCAR-3 ovarian
SK-MEL-2 melanoma = system: SK-MEL-2 melanoma
786-0 renal = system: 786-0 renal
SK-MEL-5 melanoma = system: SK-MEL-5 melanoma
DU-145 prostate = system: DU-145 prostate
SF-268 CNS = system: SF-268 CNS
SF-295 CNS = system: SF-295 CNS
NCI-H23 lung = system: NCI-H23 lung
OVCAR-8 ovarian = system: OVCAR-8 ovarian
CCRF-CEM leukemia = system: CCRF-CEM leukemia
A498 renal = system: A498 renal
UO-31 renal = system: UO-31 renal
U251 CNS = system: U251 CNS
T-47D breast = system: T-47D breast
M14 melanoma = system: M14 melanoma
NCI-H460 lung = system: NCI-H460 lung
CAKI-1 renal = system: CAKI-1 renal
HT29 colon = system: HT29 colon
HS 578T breast = system: HS 578T breast
NCI-H226 lung = system: NCI-H226 lung
SW-620 colon = system: SW-620 colon
UACC-62 melanoma = system: UACC-62 melanoma
LOX IMVI melanoma = system: LOX IMVI melanoma
MALME-3M melanoma = system: MALME-3M melanoma
A549 NSCLC = system: A549 NSCLC
SN12C renal = system: SN12C renal
HL-60(TB) leukemia = system: HL-60(TB) leukemia
HCC-2998 colon = system: HCC-2998 colon
OVCAR-4 ovarian = system: OVCAR-4 ovarian
HCT-15 colon = system: HCT-15 colon
RXF 393 renal = system: RXF 393 renal
UACC-257 melanoma = system: UACC-257 melanoma
OVCAR-5 ovarian = system: OVCAR-5 ovarian
HOP-62 NSCLC = system: HOP-62 NSCLC
MDA-MB-435 = system: MDA-MB-435
NCI/ADR-RES ovarian = system: NCI/ADR-RES ovarian
K-562 leukemia = system: K-562 leukemia
MCF7 breast = system: MCF7 breast
SF-539 CNS = system: SF-539 CNS
TK-10 renal = system: TK-10 renal
SK-OV-3 ovarian = system: SK-OV-3 ovarian
BT-549 breast = system: BT-549 breast
HCT-116 colon = system: HCT-116 colon
HOP-92 NSCLC = system: HOP-92 NSCLC
SNB-75 CNS = system: SNB-75 CNS
COLO 205 colon = system: COLO 205 colon
MOLT-4 leukemia = system: MOLT-4 leukemia
MDA-MB-231 breast = system: MDA-MB-231 breast
KM12 colon = system: KM12 colon
ACHN renal = system: ACHN renal
SNB-19 CNS = system: SNB-19 CNS
PC-3 prostate = system: PC-3 prostate
SK-MEL-28 melanoma = system: SK-MEL-28 melanoma
NCI-H522 lung = system: NCI-H522 lung

O=C1NC(=O)c2c1c1c3ccccc3ccc1c1[nH]c3ccccc3c21
GI50 (EKVX NSCLC): 2.04 µM
TGI (EKVX NSCLC): > 58.4 µM
GI50 (RPMI-8226 leukemia): 0.5 µM
TGI (RPMI-8226 leukemia): > 100 µM
GI50 (SR leukemia): 0.169 µM
TGI (SR leukemia): 2.92 µM
GI50 (IGROV1 ovarian): 0.529 µM
TGI (IGROV1 ovarian): > 56.2 µM
GI50 (OVCAR-3 ovarian): 2.43 µM
TGI (OVCAR-3 ovarian): 19.3 µM
GI50 (SK-MEL-2 melanoma): 1.2 µM
TGI (SK-MEL-2 melanoma): > 100 µM
GI50 (786-0 renal): 1.2 µM
TGI (786-0 renal): 16.6 µM
GI50 (SK-MEL-5 melanoma): 1.16 µM
TGI (SK-MEL-5 melanoma): 26.6 µM
GI50 (DU-145 prostate): 0.96 µM
TGI (DU-145 prostate): > 100 µM
GI50 (SF-268 CNS): 1.43 µM
TGI (SF-268 CNS): 34.3 µM
GI50 (SF-295 CNS): 1.61 µM
TGI (SF-295 CNS): 14.6 µM
GI50 (NCI-H23 lung): 0.699 µM
TGI (NCI-H23 lung): > 100 µM
GI50 (OVCAR-8 ovarian): 1.29 µM
TGI (OVCAR-8 ovarian): 24.8 µM
GI50 (CCRF-CEM leukemia): 0.457 µM
TGI (CCRF-CEM leukemia): > 68.7 µM
GI50 (A498 renal): 0.491 µM
TGI (A498 renal): 2.71 µM
GI50 (UO-31 renal): 0.239 µM
TGI (UO-31 renal): 21.9 µM
GI50 (U251 CNS): 1.06 µM
TGI (U251 CNS): 15.7 µM
GI50 (T-47D breast): 0.524 µM
TGI (T-47D breast): > 70.9 µM
GI50 (M14 melanoma): 0.322 µM
TGI (M14 melanoma): > 100 µM
GI50 (NCI-H460 lung): 0.4 µM
TGI (NCI-H460 lung): 24.4 µM
GI50 (CAKI-1 renal): 0.228 µM
TGI (CAKI-1 renal): 11.7 µM
GI50 (HT29 colon): 0.631 µM
TGI (HT29 colon): > 91.1 µM
GI50 (HS 578T breast): 1.08 µM
TGI (HS 578T breast): > 31.5 µM
GI50 (NCI-H226 lung): 0.641 µM
GI50 (SW-620 colon): 0.717 µM
TGI (SW-620 colon): > 100 µM
GI50 (UACC-62 melanoma): 0.749 µM
TGI (UACC-62 melanoma): > 62.3 µM
GI50 (LOX IMVI melanoma): 1.38 µM
TGI (LOX IMVI melanoma): > 100 µM
GI50 (MALME-3M melanoma): 0.207 µM
TGI (MALME-3M melanoma): 6.01 µM
GI50 (A549 NSCLC): 0.971 µM
TGI (A549 NSCLC): > 100 µM
GI50 (SN12C renal): 0.516 µM
TGI (SN12C renal): > 88.2 µM
GI50 (HL-60(TB) leukemia): 0.233 µM
TGI (HL-60(TB) leukemia): > 100 µM
GI50 (HCC-2998 colon): 7.65 µM
TGI (HCC-2998 colon): > 100 µM
GI50 (OVCAR-4 ovarian): 1.79 µM
TGI (OVCAR-4 ovarian): 19.6 µM
GI50 (HCT-15 colon): 0.593 µM
TGI (HCT-15 colon): > 100 µM
GI50 (RXF 393 renal): 0.317 µM
TGI (RXF 393 renal): 1.84 µM
GI50 (UACC-257 melanoma): 3.74 µM
TGI (UACC-257 melanoma): > 80.4 µM
GI50 (OVCAR-5 ovarian): 1.63 µM
TGI (OVCAR-5 ovarian): > 100 µM
GI50 (HOP-62 NSCLC): 0.925 µM
TGI (HOP-62 NSCLC): 17.6 µM
GI50 (MDA-MB-435): 0.247 µM
TGI (MDA-MB-435): > 100 µM
GI50 (NCI/ADR-RES ovarian): 1.57 µM
TGI (NCI/ADR-RES ovarian): > 87 µM
GI50 (K-562 leukemia): 0.543 µM
TGI (K-562 leukemia): > 91.1 µM
GI50 (MCF7 breast): 0.327 µM
TGI (MCF7 breast): > 100 µM
GI50 (SF-539 CNS): 0.663 µM
TGI (SF-539 CNS): 35.7 µM
GI50 (TK-10 renal): 0.486 µM
TGI (TK-10 renal): 11.4 µM
GI50 (SK-OV-3 ovarian): 0.354 µM
TGI (SK-OV-3 ovarian): 6.43 µM
GI50 (BT-549 breast): 0.279 µM
TGI (BT-549 breast): 2.33 µM
GI50 (HCT-116 colon): 0.852 µM
TGI (HCT-116 colon): > 100 µM
GI50 (HOP-92 NSCLC): 0.857 µM
TGI (HOP-92 NSCLC): 7.42 µM
GI50 (SNB-75 CNS): 4.02 µM
TGI (SNB-75 CNS): 16.6 µM
GI50 (COLO 205 colon): 1.3 µM
TGI (COLO 205 colon): > 100 µM
GI50 (MOLT-4 leukemia): 0.444 µM
TGI (MOLT-4 leukemia): 7.48 µM
GI50 (MDA-MB-231 breast): 1.15 µM
TGI (MDA-MB-231 breast): > 100 µM
GI50 (KM12 colon): 0.115 µM
TGI (KM12 colon): > 100 µM
GI50 (ACHN renal): 0.336 µM
TGI (ACHN renal): 13.2 µM
GI50 (SNB-19 CNS): 2.51 µM
TGI (SNB-19 CNS): 17 µM
GI50 (PC-3 prostate): 0.42 µM
TGI (PC-3 prostate): 30.4 µM
GI50 (SK-MEL-28 melanoma): 0.911 µM
TGI (SK-MEL-28 melanoma): > 100 µM
GI50 (NCI-H522 lung): 0.568 µM
TGI (NCI-H522 lung): 15.6 µM
